Laboratory results from patent publication US20250186446A1, “ORGANIC COMPOUNDS” (INTRA-CELLULAR THERAPIES, INC., priority 2022, published 2025).

Experiments:
Assay type in all cases: in vivo, mouse
[1] = test system: 4T1 murine breast cancer cells; experiment: 4T1 syngeneic breast cancer tumor growth and survival in mice; settings: 4T1 tumors
Procedure: (§1) 4T1 murine breast cancer cells are obtained from the American Type Culture Collection (ATCC) and maintained in RPMI medium containing 10% fetal bovine serum, 4 mM glutamine, and 1% penicillin/streptomycin. The cells were cultured in tissue culture flasks in a humidified incubator at 37° C., in an atmosphere of 5% CO2 and 95% air. The 4T1 tumor cells used for implantation are harvested and re-suspended at a concentration of 50×10^3 cells/mL in cold PBS. Nine weeks old female Balb/c mice (Balb/cJ, Jackson Laboratory) are injected subcutaneously in the right flank with 10×10^3 cells in 0.2 mL cold PBS. […] Mice are randomized in groups after the tumors are measured with a caliper in two dimensions to monitor size. Tumor size is calculated using the formula: Tumor Volume (mm^3)=(w^2×1)/2 where w=width and l=length, in mm. Tumors are measured twice per week for the duration of the study. Each mouse is euthanized as it reached a tumor volume endpoint of 1500 mm^3 or if they show any type of discomfort, whichever comes first.
(§2) The anti-PD-1 RMP1-14 (Lot No. 800121F12A) and isotype (Lot No. 749620N1) antibody are purchased from BioXCell. The stock solution is diluted in PBS to yield a dosing solution of 0.1 or 1 mg/mL, which delivered 1 or 10 mg/kg respectively in a dosing volume of 0.2 mL (10 mL/kg, for a […]). Mice are administered isotype or anti-PD-1 RMP1-14 intraperitoneally in 0.2 mL (10 mL/kg, for a […]) twice a week.
as §1, with “(mm^3) (w^2×1)/2” for “(mm^3)=(w^2×1)/2”

[2] = test system: E0771 murine breast cancer cells; experiment: E0771 syngeneic breast cancer tumor growth in mice; settings: E0771 tumors
Procedure: E0771 murine breast cancer cells are obtained from the American Type Culture Collection (ATCC) and maintained in DMEM medium containing 10% fetal bovine serum, 4 mM glutamine, 20 mM HEPES, and 1% penicillin/streptomycin. The cells are cultured in tissue culture flasks in a humidified incubator at 37° C., in an atmosphere of 5% CO2 and 95% air. The E0771 tumor cells used for implantation are harvested and re-suspended at a concentration of 2.5×10^6 cells/mL in cold PBS. Nine weeks old female C57Bl/6 mice (C57Bl/6J, Jackson Laboratory) are injected subcutaneously in the right flank with 0.5×10^6 cells in 0.2 mL cold PBS. 10 days later the mice have a palpable size tumor, and specified size to start treatments (around 100 mm^3). Mice are randomized in groups after the tumors are measured with a caliper in two dimensions to monitor size. Tumor size is calculated using the formula: Tumor Volume (mm^3)=(w^2×1)/2 where w=width and l=length, in mm. Tumors are measured twice per week for the duration of the study. Each mouse is euthanized as it reached a tumor volume endpoint of 1500 mm^3 or if they show any type of discomfort, whichever comes first.
[…] Compound A is synthesized at Intra-Cellular Therapies Inc. Compound A diets are used to treat mice. Compound A diet 900 ppm (diet supplements 900 mg of Compound A per kg to Picolab Rodent Diet 5053) is produced by Envigo (Madison WI). Mice are dosed 5 days a week with vehicle or Compound A.
as §2
Mice are treated with Compound B alone, anti-PD-1 antibody alone, or the combination of Compound B and anti-PD-1 antibody. Compound B is synthesized at Intra-Cellular Therapies Inc. Compound B diets are used to treat mice. […]

[3] = LC/MS/MS quantification of drug exposure in E0771 tumor-bearing mice
Procedure: (§3) Tumor, liver, and feces samples are diluted in phosphate buffer and homogenized using ultrasonic processor. Plasma and homogenized tissue samples along with a set of standard and quality control samples are extracted by way of protein precipitation technique on Ostro plate (Waters) using 1% formic acid in acetonitrile spiked with internal standard. 2 μL of the filtered samples are injected using an autosampler and separated chromatographically using a Phenomenex, Synergi™, […], 50×3 mm, Polar-RP column, isocratic mobile phase combination of 0.1% formic acid in water and 0.1% formic acid in acetonitrile (40/60) with flow rate of 0.8 mL/min. The Sciex Qtrap 6500 mass spectrometer is used as the detector with positive electrospray in MRM ionization mode and an ion source temperature of 650° C. Quantification of Compound A is carried out using a calibration curve established with standards for the corresponding analyte concentration, retention time and mass profile.
Tumor, liver, and feces samples are diluted in phosphate buffer and homogenized using ultrasonic processor. […] Quantification of Compound B is carried out using a calibration curve established with standards for the corresponding analyte concentration, retention time and mass profile.

[4] = LC/MS/MS quantification of drug exposure in 4T1 tumor-bearing mice; settings: in absence or presence of anti-PD1
Procedure: as §3

[5] = Example 2, Compound A 300 ppm or 900 ppm in diet, monotherapy or with anti-PD1 10 mg/kg

Structure (SMILES)	tumor volume ([1]; Example 4, Compound B 100, 300 or 900 ppm in diet, anti-PD1 10 mg/kg, alone or combined, anti-PD1 alone: after day 5, vs isotype and/or anti-PD1 alone)	tumor weight at terminal sacrifice ([1]; Example 4, Compound B 100, 300 or 900 ppm in diet, anti-PD1 10 mg/kg, alone or combined, treatment day 14, vs isotype and/or anti-PD1 alone)	tumor volume or weight relative to isotype (control) and/or anti-PD1 alone ([2]; Example 3, Compound B 100, 300 or 900 ppm in diet, monotherapy or with anti-PD1 1 mg/kg)	exposure in plasma and tissues ([3]; Example 3, Compound B in diet, in absence or presence of anti-PD1)	exposure in plasma and tissues ([4]; Example 4, Compound B in diet)	survival of animals [1, 5]	tumor volume or weight relative to isotype (control) [1, 5]	tumor volume ([2]; Example 1, C57Bl/6 mice, Compound A 900 ppm in diet, anti-PD1 10 mg/kg ip, alone or combined, day 3, 7, 10, 14, 17, vs isotype control)	tumor weight at terminal sacrifice ([2]; Example 1, Compound A 900 ppm in diet, anti-PD1 10 mg/kg, alone or combined, treatment day 17, vs isotype control)	drug exposures in plasma, tissues, and feces ([3]; Example 1, Compound A 900 ppm in diet, all groups receiving Compound A)	exposure in plasma and tissues ([4]; Example 2, Compound A in diet)
CC(=O)c1ccc(Cn2nc3c(c2Nc2ccc(F)cc2)C(=O)N(C)C2=NC(C)(C)CN23)cc1 [Compound B]	significantly reduces	significantly reduces	significantly reduces	comparable	comparable						
CN1C(=O)c2c(nn(Cc3ccc(-c4cccc(F)n4)cc3)c2Nc2ccccc2)N2C1=N[C@@H]1CCC[C@@H]12 [Compound A]						improved	significantly reduce	Neither Compound A (900 ppm) treatment alone nor anti-PD-1 antibody (10 mg/kg) treatment alone shows a significant effect	Neither Compound A (900 ppm) treatment alone nor anti-PD-1 antibody (10 mg/kg) treatment alone shows a significant effect	comparable	comparable
